Data published in patent US8178517B2, “6-methylvitamin D3 analogs and their uses” (Wisconsin Alumni Research Foundation, priority 2009, dated 2012).

How the values were obtained:
[1] = test system: vitamin D-deficient rats on a low calcium diet; experiment: Intestinal calcium transport, everted gut sac method; assay type: in vivo, rat; settings: for intestinal calcium transport activity (everted gut sac): 7020 pmol/day for 4 consecutive days
Experimental: (§1) Intestinal Calcium Transport and Bone Calcium Mobilization
(§2) Male, weanling Sprague-Dawley rats were placed on Diet 11 (0.47% Ca) diet+AEK oil for one week followed by Diet 11 (0.02% Ca)+AEK oil for 3 weeks. The rats were then switched to a diet containing 0.47% Ca for one week followed by two weeks on a diet containing 0.02% Ca. Dose administration began during the last week on 0.02% calcium diet. Four consecutive ip doses were given approximately 24 hours apart. Twenty-four hours after the last dose, blood was collected from the severed neck and the concentration of serum calcium determined as a measure of bone calcium mobilization. The first 10 cm of the intestine was also collected for intestinal calcium transport analysis using the everted gut sac method.

[2] = test system: 24-hydroxylase (24Ohase) gene promoter; experiment: In vitro transcription assay (24-hydroxylase promoter luciferase reporter in ROS 17/2.8 bone cells); assay type: cell-based; settings: for EC50: ROS 17/2.8 bone cells, luciferase reporter, FIG. 3, read-out: EC50, transcriptional activity in bone cells (24-hydroxylase gene)
Experimental: In Vitro Transcription Assay
Transcription activity was measured in ROS 17/2.8 (bone) cells that were stably transfected with a 24-hydroxylase (24Ohase) gene promoter upstream of a luciferase reporter gene (Arbour et al., 1998). Cells were given a range of doses. Sixteen hours after dosing the cells were harvested and luciferase activities were measured using a luminometer.
RLU=relative luciferase units.

HL-60 cells = experiment: HL-60 differentiation (nitro blue tetrazolium reduction); assay type: cell-based, human; settings: for EC50: Homo sapiens, HL-60 cells, differentiation into monocytes, FIG. 2, read-out: EC50, HL-60 cell differentiation
Experimental: Serial dilutions were prepared so that a range of drug concentrations could be tested without changing the final concentration of ethanol (≦0.2%) present in the cell cultures.
Human promyelocytic leukemia (HL60) cells were grown in RPMI-1640 medium containing 10% fetal bovine serum. The cells were incubated at 37° C. in the presence of 5% CO2.
HL60 cells were plated at 1.2×10^5 cells/ml. Eighteen hours after plating, cells in duplicate were treated with drug. Four days later, the cells were harvested and a nitro blue tetrazolium reduction assay was performed (Collins et al., 1979; J. Exp. Med. 149:969-974). The percentage of differentiated cells was determined by counting a total of 200 cells and recording the number that contained intracellular black-blue formazan deposits. Verification of differentiation to monocytic cells was determined by measuring phagocytic activity (data not shown).

[3] = test system: vitamin D-deficient rats on a low calcium diet; experiment: Bone calcium mobilization (serum calcium) in vitamin D-deficient rats; assay type: in vivo, rat; settings: for serum calcium (bone calcium mobilization): 7020 pmol/day ip for 4 consecutive days, rats on 0.02% Ca diet
Experimental: as §1, §2

[4] = biological target: T1, full-length recombinant rat vitamin D receptor (Rattus norvegicus, UniProt P13053); experiment: biochemical
T1 sequence (P13053 1-423): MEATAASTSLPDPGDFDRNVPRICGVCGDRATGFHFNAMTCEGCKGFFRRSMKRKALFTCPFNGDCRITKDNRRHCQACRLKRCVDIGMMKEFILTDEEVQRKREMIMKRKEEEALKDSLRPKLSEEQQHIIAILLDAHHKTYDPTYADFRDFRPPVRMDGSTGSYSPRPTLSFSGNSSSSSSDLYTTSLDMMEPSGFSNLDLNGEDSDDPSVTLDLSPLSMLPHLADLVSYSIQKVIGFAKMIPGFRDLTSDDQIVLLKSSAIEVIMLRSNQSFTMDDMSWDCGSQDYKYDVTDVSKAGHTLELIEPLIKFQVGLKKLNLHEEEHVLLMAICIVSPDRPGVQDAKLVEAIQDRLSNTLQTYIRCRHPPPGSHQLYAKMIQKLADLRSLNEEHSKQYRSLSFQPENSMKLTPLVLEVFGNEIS
Text: Vitamin D Receptor Binding
Full-length recombinant rat receptor was expressed in E. coli BL21 (DE3) Codon Plus RIL cells and purified to homogeneity using two different column chromatography systems. The first system was a nickel affinity resin that utilizes the C-terminal histidine tag on this protein. The protein that was eluted from this resin was further purified using ion exchange chromatography (S-Sepharose Fast Flow). Aliquots of the purified protein were quick frozen in liquid nitrogen and stored at −80° C. until use. For use in binding assays, the protein was diluted in TEDK50 (50 mM Tris, 1.5 mM EDTA, pH7.4, 5 mM DTT, 150 mM KCl) with 0.1% Chaps detergent.
Radiolabeled and unlabeled ligands were added to 100 mcl of the diluted protein at a final ethanol concentration of ≦10%, mixed and incubated overnight on ice to reach binding equilibrium. The following day, 100 mcl of hydroxylapatite slurry (50%) was added to each tube and mixed at 10-minute intervals for 30 minutes. The hydroxylapaptite was collected by centrifugation and then washed three times with Tris-EDTA buffer (50 mM Tris, 1.5 mM EDTA, pH 7.4) containing 0.5% Titron X-100. […] Total binding was determined from the tubes containing only radiolabeled ligand.

[5] = Isomerization to previtamin form / storage stability; assay type: physicochemical; settings: can be stored by a prolonged time in a freezer
[6] = relative to 1,25(OH)2D3, in vivo, rats
[7] = relative to 1α,25-dihydroxyvitamin D3

| Structure (SMILES) | intestinal calcium transport activity (everted gut sac) ([1]; rats, FIG. 5) | EC50 [2] [nM] | EC50 (HL-60 cells) [nM] | serum calcium (bone calcium mobilization) ([3]; FIG. 4) [mg/dL] | effect on serum calcium levels across dosages ([3]; all dosages tested, FIG. 4) | Ki [4] [nM] | dose dependence of intestinal calcium transport ([1]; across doses, FIG. 5) | times less potent than 1,25(OH)2D3 in stimulating intestinal calcium transport [1, 6] | times less transcriptional activity in bone cells than 1α,25-dihydroxyvitamin D3 [2, 7] [times] | times less activity than 1α,25-dihydroxyvitamin D3 in HL-60 cell differentiation (HL-60 cells; [7]) [times] | stability (isomerization to previtamin D form) [5] | times less potent than 1,25(OH)2D3 in mobilizing calcium from bone [3, 6] |
| --- | --- | --- | --- | --- | --- | --- | --- | --- | --- | --- | --- | --- |
| C=C1C(=CC=C2CCCC3(C)C2CCC3C(C)CCCC(C)(C)O)CC(O)CC1O (stereo not drawn) [1,25(OH)2D3, 1α,25-dihydroxyvitamin D3, reference compound] | 8.3 | 0.2 | 2 | 7.6 | increased serum calcium levels at all dosages |  |  |  |  |  |  |  |
| C=C1/C(=C(C)\C=C2/CCC[C@@]3(C)C2CCC3[C@H](C)CCCC(C)(C)O)C[C@@H](O)C[C@@H]1O (stereo partly drawn) [Me-Cvit, 1α,25-dihydroxy-6-methylvitamin D3] | 4.8 | 4 | 80 | 4.3 |  | 0.02 | promotes intestinal calcium transport in a dose dependent manner | greater than 1,000 times | ~10 | ~20 | very easily isomerizes to its previtamin D form 5 | about 400 times |
